According to ChEMBL document CHEMBL1201862, “PubChem BioAssay data set” (2004):
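Following 48 hours of exposure in 96-well plates, responses at five concentrations were used to interpolate endpoints linearly. At the GI50, growth is halved.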 Active and inactive are the calls of the source. No stated cut-off is given here; in the data, active = GI50 up to about 1.1 µM and inactive = higher.

How the values were obtained:
Assay in all cases: DTP human tumour cell line panel, 48 h
786-0 = system: 786-0
A549 = system: A549
ACHN = system: ACHN
CCRF-CEM = system: CCRF-CEM
COLO 205 = system: COLO 205
DU-145 = system: DU-145
EKVX = system: EKVX
HCC 2998 = system: HCC 2998
HCT-116 = system: HCT-116
HCT-15 = system: HCT-15
HL-60 = system: HL-60
HOP-62 = system: HOP-62
HOP-92 = system: HOP-92
HT-29 = system: HT-29
Hs-578T = system: Hs-578T
IGROV-1 = system: IGROV-1
K562 = system: K562
KM12 = system: KM12
LOX IMVI = system: LOX IMVI
M14 = system: M14
MDA-MB-231 = system: MDA-MB-231
MDA-MB-435 = system: MDA-MB-435
MDA-N = system: MDA-N
MOLT-4 = system: MOLT-4
Malme-3M = system: Malme-3M
NCI-H226 = system: NCI-H226
NCI-H23 = system: NCI-H23
NCI-H460 = system: NCI-H460
NCI-H522 = system: NCI-H522
NCI/ADR-RES = system: NCI/ADR-RES
OVCAR-3 = system: OVCAR-3
OVCAR-4 = system: OVCAR-4
OVCAR-5 = system: OVCAR-5
OVCAR-8 = system: OVCAR-8
PC-3 = system: PC-3
RPMI-8226 = system: RPMI-8226
RXF 393 = system: RXF 393
SF-268 = system: SF-268
SF-295 = system: SF-295
SF-539 = system: SF-539
SK-MEL-28 = system: SK-MEL-28
SK-MEL-2 = system: SK-MEL-2
SK-MEL-5 = system: SK-MEL-5
SK-OV-3 = system: SK-OV-3
SN12C = system: SN12C
SNB-19 = system: SNB-19
SNB-75 = system: SNB-75
SR = system: SR
SW-620 = system: SW-620
T47D = system: T47D
TK-10 = system: TK-10
U-251 = system: U-251
UACC-257 = system: UACC-257
UACC-62 = system: UACC-62

With `CN(C)CCCN1c2ccc([N+](=O)[O-])cc2CCc2cccc([N+](=O)[O-])c21` the GI50 (786-0) was 13.6 µM (inactive), the GI50 (A549) was 16 µM (inactive) and the GI50 (ACHN) was 17.6 µM (inactive). For the same compound, the GI50 (CCRF-CEM) was 16.7 µM (inactive), the GI50 (COLO 205) was 12.8 µM (inactive) and the GI50 (DU-145) was 17.4 µM (inactive). For the same compound, the GI50 (EKVX) was 16.1 µM (inactive), the GI50 (HCC 2998) was 13.5 µM (inactive) and the GI50 (HCT-116) was 14.3 µM (inactive). For the same compound, the GI50 (HCT-15) was 15.5 µM, the GI50 (HL-60) was 18.1 µM (inactive) and the GI50 (HOP-62) was 13.8 µM (inactive). The GI50 (HOP-92) was 11 µM (inactive), the GI50 (HT-29) was 13.7 µM (inactive) and the GI50 (Hs-578T) was 14.4 µM (inactive). For the same compound, the GI50 (IGROV-1) was 14.9 µM (inactive), the GI50 (K562) was 14.8 µM (inactive) and the GI50 (KM12) was 15.6 µM (inactive). The GI50 (LOX IMVI) was 16.5 µM (inactive), the GI50 (M14) was 13.7 µM (inactive) and the GI50 (MDA-MB-231) was 13.1 µM (inactive). For the same compound, the GI50 (MDA-MB-435) was 14.6 µM (inactive), the GI50 (MDA-N) was 14.8 µM (inactive) and the GI50 (MOLT-4) was 15.8 µM (inactive). The GI50 (Malme-3M) was 14.1 µM (inactive), the GI50 (NCI-H226) was 13.3 µM (inactive) and the GI50 (NCI-H23) was 15.9 µM (inactive). For the same compound, the GI50 (NCI-H460) was 15.5 µM (inactive), the GI50 (NCI-H522) was 17.7 µM (inactive) and the GI50 (NCI/ADR-RES) was 13.3 µM (inactive). The GI50 (OVCAR-3) was 15.4 µM (inactive), the GI50 (OVCAR-4) was 0.57 µM (active) and the GI50 (OVCAR-5) was 13 µM (inactive). For the same compound, the GI50 (OVCAR-8) was 17 µM (inactive), the GI50 (PC-3) was 16.7 µM (inactive) and the GI50 (RPMI-8226) was 26.1 µM (inactive). For the same compound, the GI50 (RXF 393) was 10.5 µM (inactive), the GI50 (SF-268) was 15.5 µM (inactive) and the GI50 (SF-295) was 15 µM (inactive). The GI50 (SF-539) was 15.2 µM (inactive), the GI50 (SK-MEL-28) was 14.8 µM (inactive) and the GI50 (SK-MEL-2) was 18.7 µM (inactive). For the same compound, the GI50 (SK-MEL-5) was 15.2 µM (inactive), the GI50 (SK-OV-3) was 14.8 µM (inactive) and the GI50 (SN12C) was 15.1 µM (inactive). For the same compound, the GI50 (SNB-19) was 17.5 µM (inactive), the GI50 (SNB-75) was 13.2 µM (inactive) and the GI50 (SR) was 35.2 µM (inactive). The GI50 (SW-620) was 16.1 µM (inactive), the GI50 (T47D) was 17.4 µM (inactive) and the GI50 (TK-10) was 11.1 µM (inactive). For the same compound, the GI50 (U-251) was 15.3 µM (inactive), the GI50 (UACC-257) was 14.3 µM (inactive) and the GI50 (UACC-62) was 3.37 µM (inactive).
